Legend:
[1] = target: Poly [ADP-ribose] polymerase 1 (Homo sapiens, UniProt P09874); assay: Inhibition of human recombinant PARP-1 after 1 hr by ELISA
[2] = Cytotoxicity against Chinese hamster V79 cells by sulforhodamine B assay; format: cell-based, Cricetulus griseus
[3] = Cytotoxicity against BRCA2-deficient Chinese hamster VC8 cells by sulforhodamine B assay; format: functional; conditions: Cricetulus griseus, V-C8
[4] = Cytotoxicity against BRCA1-deficient human MDA-MB-436 cells by sulforhodamine B assay; format: functional

Sequence of Poly [ADP-ribose] polymerase 1 (P09874 whole entry): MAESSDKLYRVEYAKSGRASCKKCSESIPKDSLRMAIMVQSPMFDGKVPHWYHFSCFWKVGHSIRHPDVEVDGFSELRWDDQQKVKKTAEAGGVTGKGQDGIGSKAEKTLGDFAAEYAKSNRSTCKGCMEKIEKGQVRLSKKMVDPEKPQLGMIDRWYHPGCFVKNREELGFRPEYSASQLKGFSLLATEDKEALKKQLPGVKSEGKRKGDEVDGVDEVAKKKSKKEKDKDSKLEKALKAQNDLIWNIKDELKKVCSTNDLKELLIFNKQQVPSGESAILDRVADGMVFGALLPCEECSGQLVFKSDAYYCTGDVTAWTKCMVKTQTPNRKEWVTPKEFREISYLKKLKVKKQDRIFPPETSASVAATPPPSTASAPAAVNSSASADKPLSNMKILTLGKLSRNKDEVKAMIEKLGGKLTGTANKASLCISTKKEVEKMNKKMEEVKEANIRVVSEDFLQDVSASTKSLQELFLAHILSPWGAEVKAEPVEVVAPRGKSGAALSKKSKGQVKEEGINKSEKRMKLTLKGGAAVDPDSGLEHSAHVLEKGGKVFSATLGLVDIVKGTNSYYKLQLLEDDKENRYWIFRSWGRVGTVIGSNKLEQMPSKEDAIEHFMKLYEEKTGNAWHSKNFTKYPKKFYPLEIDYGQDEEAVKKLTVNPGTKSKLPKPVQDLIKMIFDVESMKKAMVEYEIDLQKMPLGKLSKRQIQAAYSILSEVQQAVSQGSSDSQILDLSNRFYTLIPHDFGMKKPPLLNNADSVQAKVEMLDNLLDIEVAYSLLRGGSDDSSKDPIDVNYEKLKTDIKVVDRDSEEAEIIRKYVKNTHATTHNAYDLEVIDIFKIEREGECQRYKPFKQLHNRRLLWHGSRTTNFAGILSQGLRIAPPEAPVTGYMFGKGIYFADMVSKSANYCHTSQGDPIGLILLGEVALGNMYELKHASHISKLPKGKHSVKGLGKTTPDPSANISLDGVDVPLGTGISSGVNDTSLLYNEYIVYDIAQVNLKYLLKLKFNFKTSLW

| SMILES | IC50 [1] [nM] | CC50 [2] [nM] | CC50 [3] [nM] | CC50 [4] [nM] |
| --- | --- | --- | --- | --- |
| Cc1c(C(=O)N2CC=C(c3ccc(F)cc3)CC2)sc2c1[nH]c(=O)c1ccccc12 | 133 | – | – | – |
| Cn1c(C(=O)N2CCNCC2)cc2[nH]c(=O)c3ccccc3c21 | 44 | – | – | – |
| CN1CCN(C(=O)c2cc3[nH]c(=O)c4ccccc4c3n2C)CC1 | 119 | – | – | – |
| CC(C)N1CCN(C(=O)c2cc3[nH]c(=O)c4ccccc4c3n2C)CC1 | 830 | – | – | – |
| Cn1c(C(=O)N2CCN(Cc3ccccc3)CC2)cc2[nH]c(=O)c3ccccc3c21 | 860 | – | – | – |
| COc1cccc(CN2CCN(C(=O)c3cc4[nH]c(=O)c5ccccc5c4n3C)CC2)c1 | 400 | – | – | – |
| Cn1c(C(=O)N2CCN(Cc3ccc([N+](=O)[O-])cc3)CC2)cc2[nH]c(=O)c3ccccc3c21 | > 10000 | – | – | – |
| CC(C)S(=O)(=O)N1CCN(C(=O)c2cc3[nH]c(=O)c4ccccc4c3n2C)CC1 | 600 | – | – | – |
| Cn1c(C(=O)N2CCCNCC2)cc2[nH]c(=O)c3ccccc3c21 | 100 | > 10000 | > 10000 | 1190 |
| CN1CCCN(C(=O)c2cc3[nH]c(=O)c4ccccc4c3n2C)CC1 | 200 | – | – | – |
| CN(C)CCNC(=O)c1cc2[nH]c(=O)c3ccccc3c2n1C | 1100 | – | – | – |
| CN(C)CCCNC(=O)c1cc2[nH]c(=O)c3ccccc3c2n1C | 300 | – | – | – |
| Cn1c(C(=O)NCCCN2CCOCC2)cc2[nH]c(=O)c3ccccc3c21 | 100 | – | – | – |
| Cn1c(C(=O)N2CCCNCC2)c(Cl)c2[nH]c(=O)c3ccccc3c21 | 100 | – | – | – |
| Cn1c(C(=O)N2CCCNCC2)c(Br)c2[nH]c(=O)c3ccccc3c21 | 100 | – | – | – |
| CN1CCN(C(=O)c2cc3c(n2C)-c2ccccc2C(=O)NC3)CC1 | > 10000 | – | – | – |
| CN(C)C1CCN(C(=O)c2cc3c(n2C)-c2ccccc2C(=O)NC3)CC1 | 6430 | – | – | – |
| Cn1c(C(=O)N2CC=C(c3ccc(F)cc3)CC2)cc2c1-c1ccccc1C(=O)NC2 | 1670 | – | – | – |
| CN1CCCN(C(=O)c2cc3c(n2C)-c2ccccc2C(=O)NC3)CC1 | 10000 | – | – | – |
| Cn1c(C(=O)NCCN2CCCC2)cc2c1-c1ccccc1C(=O)NC2 | 8170 | – | – | – |
| Cc1c(C(=O)N2CCN(C)CC2)sc2c1[nH]c(=O)c1ccccc12 | 231 | – | – | – |
| CCN1CCN(C(=O)c2sc3c([nH]c(=O)c4ccccc43)c2C)CC1 | 79 | > 10000 | > 10000 | 3480 |
| Cc1c(C(=O)N2CCN(C(C)C)CC2)sc2c1[nH]c(=O)c1ccccc12 | 86 | > 10000 | > 10000 | > 10000 |
| Cc1c(C(=O)N2CCC(N(C)C)CC2)sc2c1[nH]c(=O)c1ccccc12 | 29 | > 10000 | > 10000 | > 10000 |
| Cc1c(C(=O)NCCN2CCN(C)CC2)sc2c1[nH]c(=O)c1ccccc12 | 284 | – | – | – |
| Cc1c(C(=O)NCCN2CCOCC2)sc2c1[nH]c(=O)c1ccccc12 | 83 | – | – | – |
| Cc1c(C(=O)NCCN2CCCC2)sc2c1[nH]c(=O)c1ccccc12 | 248 | – | – | – |
| O=C(c1cc(Cc2n[nH]c(=O)c3ccccc23)ccc1F)N1CCN(C(=O)C2CC2)CC1 [OLAPARIB] | – | 8980 | 468 | 16.9 |

Source: ChEMBL document CHEMBL3286212, “Synthesis of isoquinolinone-based tricycles as novel poly(ADP-ribose) polymerase-1 (PARP-1) inhibitors” (Bioorg Med Chem Lett, 2014)
